Test results as given in patent US20080221092A1, “Heterobicyclic metalloprotease inhibitors” (priority 2006, published 2008).

Legend:
[1] = target: T1, catalytic domain of MMP-3 enzyme (Homo sapiens, UniProt P08254); assay: Assay for determining MMP-3 inhibition (fluorescent substrate NFF-3); format: biochemical; conditions: read-out: Summary of MMP-3 Activity for Compounds (IC50 MMP-3, group)
T1 construct: stock solution of the catalytic domain of MMP-3 enzyme (Biomol, Cat. No. SE-109); purchased Biomol SE-109
Experimental: Assay for Determining MMP-3 Inhibition
The typical assay for MMP-3 activity is carried out in assay buffer comprised of 50 mM MES, pH 6.0, 10 mM CaCl2 and 0.05% Brij-35. Different concentrations of tested compounds are prepared in assay buffer in 50 μl aliquots. 10 μl of a 100 nM stock solution of the catalytic domain of MMP-3 enzyme (Biomol, Cat. No. SE-109) is added to the compound solution. The mixture of enzyme and compound in assay buffer is thoroughly mixed and incubated for 10 min at room temperature. Upon the completion of incubation, the assay is started by addition of 40 μl of a 12.5 μM stock solution of NFF-3 fluorescent substrate (Calbiochem, Cat. No. 480455). The time-dependent increase in fluorescence is measured at the 330 nm excitation and 390 nm emission by an automatic plate multireader. The IC50 values are calculated from the initial reaction rates.

[2] = target: T2, catalytic domain of MMP-13 enzyme (Homo sapiens, UniProt P45452); assay: Assay for determining MMP-13 inhibition (fluorescent substrate); format: biochemical; conditions: read-out: Summary of MMP-13 Activity for Compounds (IC50 MMP-13, group)
T2 construct: stock solution of catalytic domain of MMP-13 enzyme (produced by Alantos or commercially available from Invitek); purchased Invitek (Berlin) 30100812
Experimental: Assay for Determining MMP-13 Inhibition
The typical assay for MMP-13 activity is carried out in assay buffer comprised of 50 mM Tris, pH 7.5, 150 mM NaCl, 5 mM CaCl2 and 0.05% Brij-35. Different concentrations of tested compounds are prepared in assay buffer in 50 μl aliquots. 10 μl of a 50 nM stock solution of catalytic domain of MMP-13 enzyme (produced by Alantos or commercially available from Invitek (Berlin), Cat. No. 30100812) is added to the compound solution. The mixture of enzyme and compound in assay buffer is thoroughly mixed and incubated for 10 min at room temperature. Upon the completion of incubation, the assay is started by addition of 40 μl of a 12.5 μM stock solution of MMP-13 fluorescent substrate (Calbiochem, Cat. No. 444235). The time-dependent increase in fluorescence is measured at the 320 nm excitation and 390 nm emission by automatic plate multireader. The IC50 values are calculated from the initial reaction rates.

T1 sequence (P08254 100-272 limits assumed): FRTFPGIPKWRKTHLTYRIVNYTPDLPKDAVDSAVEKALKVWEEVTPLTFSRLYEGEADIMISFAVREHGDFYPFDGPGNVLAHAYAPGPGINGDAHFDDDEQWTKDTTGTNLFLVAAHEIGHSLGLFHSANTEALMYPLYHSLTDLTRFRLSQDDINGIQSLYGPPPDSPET

SMILES	IC50 [1] [nM]	IC50 [2] [nM]
O=C(NCc1ccc(F)cc1)c1ncnc2c(Br)c[nH]c12 [Example 5]	101 to 20000	101 to 20000
O=C1COc2ccc(CNC(=O)c3ncnc4c([N+](=O)[O-])c[nH]c34)cc2N1 [Example 6]	101 to 20000	101 to 20000
O=C(O)c1c[nH]c2c(C(=O)NCc3ccc(F)c(Cl)c3)ncnc12 [Example 20]	101 to 20000	101 to 20000
CS(=O)(=O)Nc1c[nH]c2c(C(=O)NCc3ccc4c(c3)NC(=O)CO4)ncnc12 [Example 25]	3 to 100	101 to 20000
Nc1c[nH]c2c(C(=O)NCc3ccc4c(c3)NC(=O)CO4)ncnc12 [Example 15]	101 to 20000	101 to 20000
Nc1n[nH]c2c(C(=O)NCc3ccc(F)c(Cl)c3)ncnc12 [Example 22]	101 to 20000	101 to 20000
O=C1COc2ccc(CNC(=O)c3ncnc4c(NS(=O)(=O)c5ccc(Cl)cc5)c[nH]c34)cc2N1 [Example 28]	101 to 20000	101 to 20000
O=C1COc2ccc(CNC(=O)c3ncnc4c(C(=O)O)c[nH]c34)cc2N1 [Example 21]	3 to 100	101 to 20000
Nc1n[nH]c2c(C(=O)NCc3ccc4c(c3)NC(=O)CO4)ncnc12 [Example 23]	101 to 20000	3 to 100
CC(C)(C)OC(=O)Nc1c[nH]c2c(C(=O)NCc3ccc4c(c3)NC(=O)CO4)ncnc12 [Example 1]	101 to 20000	–
O=C1COc2ccc(CNC(=O)c3ncnc4c(NS(=O)(=O)Cc5ccccc5)c[nH]c34)cc2N1 [Example 27]	101 to 20000	101 to 20000
O=C1COc2ccc(CNC(=O)c3ncnc4c(NS(=O)(=O)c5cccs5)c[nH]c34)cc2N1 [Example 26]	101 to 20000	101 to 20000
O=C(O)c1c[nH]c2c(C(=O)NCc3ccc(F)cc3)ncnc12 [Example 19]	101 to 20000	101 to 20000

Now from value to compound:

IC50 [1] [nM]	IC50 [2] [nM]	SMILES
3 to 100	101 to 20000	CCOC(=O)c1c[nH]c2c(C(=O)NCc3ccc4c(c3)NC(=O)CO4)ncnc12 [Example 8]
101 to 20000	101 to 20000	O=C(NCc1ccc(F)c(Cl)c1)c1ncnc2c([N+](=O)[O-])c[nH]c12 [Example 7]
101 to 20000	101 to 20000	O=C(NCc1ccc(F)c(Cl)c1)c1ncnc2c(Br)c[nH]c12 [Example 4]
101 to 20000	101 to 20000	O=C1COc2ccc(CNC(=O)c3ncnc4cc[nH]c34)cc2N1 [Example 13]
101 to 20000	101 to 20000	O=C1COc2ccc(CNC(=O)c3ncnc4nc[nH]c34)cc2N1 [Example 9]
